# Data from patent US10487348B2, “3-alpha-hydroxysteroid dehydrogenase mutants and process for the preparation of ursodeoxycholic acid” (Pharmazell GmbH, priority 2014, dated 2019).
# Where a chain is given by its changes, count along the chain named.
# Columns and labels:
# [1] = biological target: T1, Comamonas testosteroni 3α-HSDH, wild type, N-terminal hexahistidine tag (Comamonas testosteroni, UniProt P80702); assay: Michaelis-Menten kinetics of wild-type 3α-HSDH with N-terminal His tag; format: biochemical; settings: Table 14, substrate DHCA, apparent values
# T1 sequence (P80702 1-257): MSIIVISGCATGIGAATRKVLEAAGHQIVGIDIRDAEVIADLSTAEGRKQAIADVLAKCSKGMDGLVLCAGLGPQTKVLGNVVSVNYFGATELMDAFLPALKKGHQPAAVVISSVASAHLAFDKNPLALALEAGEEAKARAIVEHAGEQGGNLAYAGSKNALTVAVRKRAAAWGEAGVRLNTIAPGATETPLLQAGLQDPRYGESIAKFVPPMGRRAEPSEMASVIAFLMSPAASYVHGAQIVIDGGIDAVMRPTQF
# From the text: The His-tag allows for very simple purification of the HSDH protein since this sequence is bound with high specificity by specific chromatographic material (NTA (Ni-nitrilotriacetate)-modified support material, loaded with divalent nickel ions, for example “His Pur Ni-NTA” (Nimagen B. V., Nijmegen, The Netherlands)). To this end, the cell-free crude extract is applied to a dropping column comprising this material, which dropping column has previously been equilibrated with the disruption buffer (3 to 5 column volumes). Weakly binding protein was removed by washing with 3 to 5 column volumes of wash buffer (20 mM imidazole, 50 mM sodium phosphate, 300 mM NaCl, pH 8). The His-tag-3α-HSDH protein was eluted with imidazole-comprising elution buffer (250 mM imidazole, 50 mM sodium phosphate, 300 mM NaCl, pH 8). The process was carried out at room temperature. The imidazole which was present was to be removed by buffer exchange.
# (§1) The activity of the 3α-HSDH and of the mutants was determined using a photometric assay, where the decrease in absorbance was measured at 340 nm over a period of 30 seconds.
# (§2) The targeted exchange of amino acid radicals was performed analogously to Example 2B.
# Following cultivation and expression, the cells were harvested, and the specific activities of the cell-free crude extracts were determined at substrate concentrations of 10 mM DHCA. […]
# [2] = biological target: T2, Comamonas testosteroni 3α-HSDH mutant [T188G], N-terminal hexahistidine tag (Comamonas testosteroni, UniProt P80702, T188G); assay: Kinetics of 3α-HSDH [T188G], N-terminal His tag; format: biochemical; settings: DHCA
# T2 sequence (P80702 1-257 T188G): T1 sequence (P80702 1-257) with T188G
# Procedure: as §1, §2
# Following cultivation and expression, the cells were harvested, and the specific activities of the cell-free crude extracts were determined at substrate concentrations of 10 mM DHCA. The enzyme variants where the activity measurements with crude extract enzyme were most promising were purified by means of Ni-NTA chromatography, and their kinetic constants were determined by measurements with different DHCA concentrations of between 10 μM and 20 mM. In addition, an expression check by means of SDS PAGE was carried out for all mutants.
# [3] = biological target: T3, Comamonas testosteroni 3α-HSDH mutant [T188A], N-terminal hexahistidine tag (Comamonas testosteroni, UniProt P80702, T188A); assay: Kinetics of 3α-HSDH [T188A], N-terminal His tag
# T3 sequence (P80702 1-257 T188A): T1 sequence (P80702 1-257) with T188A
# [4] = biological target: T4, Comamonas testosteroni 3α-HSDH, wild type, C-terminal 3×His tag (Comamonas testosteroni, UniProt P80702); assay: Michaelis-Menten kinetics of 3α-HSDH with 3×His tag; settings: His tag length 3; DHCA 10 μM-10 mM; NADH 0.2 mM; purified
# T4 sequence (P80702 with tags, fused parts or gaps): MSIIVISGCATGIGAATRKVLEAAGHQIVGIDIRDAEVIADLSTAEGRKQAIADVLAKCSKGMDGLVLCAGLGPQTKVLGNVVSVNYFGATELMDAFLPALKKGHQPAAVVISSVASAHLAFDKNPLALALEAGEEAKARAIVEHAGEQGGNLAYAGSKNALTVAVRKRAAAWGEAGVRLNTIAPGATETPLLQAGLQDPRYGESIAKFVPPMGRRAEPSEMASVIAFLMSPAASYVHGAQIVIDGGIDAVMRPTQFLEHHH
# From the text: The His-tag allows for very simple purification of the HSDH protein since this sequence is bound with high specificity by specific chromatographic material (NTA (Ni-nitrilotriacetate)-modified support material, loaded with divalent nickel ions, for example “His Pur Ni-NTA” (Nimagen B. V., Nijmegen, The Netherlands)). To this end, the cell-free crude extract is applied to a dropping column comprising this material, which dropping column has previously been equilibrated with the disruption buffer (3 to 5 column volumes). Weakly binding protein was removed by washing with 3 to 5 column volumes of wash buffer (20 mM imidazole, 50 mM sodium phosphate, 300 mM NaCl, pH 8). […] The process was carried out at room temperature. The imidazole which was present was to be removed by buffer exchange.
# Following expression (25° C., 0.5 mM, IPTG, 20 hours), the protein was purified, and the expression and the purification were checked by means of an SDS gel. […] The NADH concentration was 0.2 mM. Purified protein was employed in the measurements.
# [5] = biological target: T5, Comamonas testosteroni 3α-HSDH dual mutant [L68A/T188A], N-terminal hexahistidine tag (Comamonas testosteroni, UniProt P80702, L68A/T188A)
# T5 sequence (P80702 1-257 L68A/T188A): T1 sequence (P80702 1-257) with L68A, T188A
# [6] = Table 14, substrate DHCA, tag N, apparent values
smiles,measurement,setting,value
"C[C@H](CCC(=O)O)[C@H]1CC[C@H]2[C@@H]3C(=O)C[C@@H]4CC(=O)CC[C@]4(C)[C@H]3CC(=O)[C@]12C [DHCA, dehydrocholic acid]",kcat,[1],47.1 s⁻¹
same,vmax,[1],98.7 ± 4.7 U/mg
same,substrate excess inhibition,[2],No pronounced substrate excess inhibition
same,kcat,[3]; [6],130.3 s⁻¹
same,vmax,[3]; [6],274.0 ± 11.6 U/mg
same,remaining activity at 20000 µM,[3]; read-out: residual activity,~20%
same,kcat,[4],6.5 ± 2.1 s⁻¹
same,vmax,[4],14.3 ± 4.8 U/mg
same,kcat,[5]; [6],111.1 s⁻¹
same,vmax,[5]; [6],233.5 ± 12.5 U/mg
same,remaining activity at 1000 µM,[5]; read-out: residual activity,85%
same,remaining activity at 10000 µM,[5]; read-out: residual activity,> 20%
